From patent publication US20230373930A1, “AMINOIMIDAZOLE FPR2 AGONISTS” (BRISTOL-MYERS SQUIBB COMPANY, priority 2020, published 2023) come the findings set out here.

By EC50 is commonly meant the concentration giving half of the maximal effect.

In assay [1] the target is T1, human FPR2 (Homo sapiens, UniProt P25090).
T1 sequence (P25090 1-351): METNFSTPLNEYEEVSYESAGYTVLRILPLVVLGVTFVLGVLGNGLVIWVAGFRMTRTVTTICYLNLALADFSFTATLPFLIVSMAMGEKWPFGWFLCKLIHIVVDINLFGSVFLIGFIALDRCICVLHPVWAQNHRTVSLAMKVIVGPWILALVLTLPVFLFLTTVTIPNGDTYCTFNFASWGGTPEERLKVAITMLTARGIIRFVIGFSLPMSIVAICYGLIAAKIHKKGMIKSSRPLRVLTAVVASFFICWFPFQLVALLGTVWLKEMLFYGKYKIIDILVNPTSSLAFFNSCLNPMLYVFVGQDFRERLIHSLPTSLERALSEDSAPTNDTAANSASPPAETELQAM
Briefly: FPR2 cyclic adenosine monophosphate (cAMP) assay. To be noted: CHO cells overexpressing human FPR2; forskolin 5 μM; inhibition of cAMP production; HTRF; read-out: hFPR2 cAMP2 EC50. Format: cell-based. The method, then:
(§1) FPR2 and FPR1 Cyclic Adenosine Monophosphate (cAMP) Assays. A mixture of forskolin (5 μM final for FPR2 or 10 μM final for FPR1) and IBMX (200 μM final) were added to 384-well Proxiplates (Perkin-Elmer) pre-dotted with test compounds in DMSO (1% final) at final concentrations in the range of 0.020 nM to 100 μM. Chinese Hamster Ovary cells (CHO) overexpressing human FPR1 or human FPR2 receptors were cultured in F-12 (Ham's) medium supplemented with 10% qualified FBS, 250 μg/ml zeocin and 300 μg/ml hygromycin (Life Technologies). Reactions were initiated by adding 2,000 human FPR2 cells per well or 4,000 human FPR1 cells per well in Dulbecco's PBS (with calcium and magnesium) (Life Technologies) supplemented with 0.1% BSA (Perkin-Elmer). The reaction mixtures were incubated for 30 min at room temperature. The level of intracellular cAMP was determined using the HTRF HiRange cAMP assay reagent kit (Cisbio) according to manufacturer's instruction. Solutions of cryptate conjugated anti-cAMP and d2 flurorophore-labelled cAMP were made in a supplied lysis buffer separately. Upon completion of the reaction, the cells were lysed with equal volume of the d2-cAMP solution and anti-cAMP solution. After a 1-h room temperature incubation, time-resolved fluorescence intensity was measured using the Envision (Perkin-Elmer) at 400 nm excitation and dual emission at 590 nm and 665 nm. A calibration curve was constructed with an external cAMP standard at concentrations ranging from 1 μM to 0.1 μM by plotting the fluorescent intensity ratio from 665 nm emission to the intensity from the 590 nm emission against cAMP concentrations. The potency and activity of a compound to inhibit cAMP production was then determined by fitting to a 4-parametric logistic equation from a plot of cAMP level versus compound concentrations.
In general terms: cAMP levels reflect the balance of adenylyl cyclase and phosphodiesterase activity.

The target in assay [2] is T2, human FPR1 (Homo sapiens, UniProt P21462).
T2 sequence (P21462 1-350): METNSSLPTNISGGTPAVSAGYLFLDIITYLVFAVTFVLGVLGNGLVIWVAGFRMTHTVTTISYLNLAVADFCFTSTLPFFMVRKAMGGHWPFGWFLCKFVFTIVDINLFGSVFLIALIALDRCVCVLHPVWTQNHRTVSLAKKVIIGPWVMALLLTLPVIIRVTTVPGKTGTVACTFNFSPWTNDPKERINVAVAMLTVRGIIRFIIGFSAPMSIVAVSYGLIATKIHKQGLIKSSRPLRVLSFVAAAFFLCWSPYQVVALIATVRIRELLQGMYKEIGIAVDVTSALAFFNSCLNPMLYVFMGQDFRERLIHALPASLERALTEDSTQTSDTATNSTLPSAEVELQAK
Briefly: FPR1 cyclic adenosine monophosphate (cAMP) assay. To be noted: CHO cells overexpressing human FPR1; forskolin 10 μM; inhibition of cAMP production; HTRF; read-out: hFPR1 cAMP2 EC50. Format: cell-based. The method, then: as §1

As to `COc1cc(F)c(-n2cc(C3CCC(O)CC3)nc2NC(=O)c2ccc(OC(F)F)cc2)c(F)c1` (centres unmarked) [Example 76, N-(1-(2,6-Difluoro-4-methoxyphenyl)-4-(4-hydroxycyclohexyl)-1H-imidazol-2-yl)-4-(difluoromethoxy)benzamide], the EC50 in assay [1] worked out at 10 nM; in assay [2] it was 240 nM.
In the same order, the values of `COc1cc(F)c(-n2cc(C(=O)NCCCO)nc2NC(=O)c2ccc(OC(F)F)cc2)c(F)c1` [Example 60, 1-(2,6-Difluoro-4-methoxyphenyl)-2-[4-(difluoromethoxy)benzamido]-N-(3-hydroxypropyl)-1H-imidazole-4-carboxamide] are 56 nM and 1400 nM.
In the same order, the values of `COc1ccc(-n2cc(-c3ccccc3F)nc2NC(=O)c2ccc(OC(F)F)cc2)cc1` [Example 25, 4-(Difluoromethoxy)-N-[4-(2-fluorophenyl)-1-(4-methoxyphenyl)-1H-imidazol-2-yl]benzamide] are 6 nM and 47 nM.
For `COc1cc(F)c(-n2cc(C(=O)NCc3ccncc3)nc2NC(=O)c2ccc(OC(F)F)cc2)c(F)c1` [Example 48, 1-(2,6-Difluoro-4-methoxyphenyl)-2-[4-(difluoromethoxy)benzamido]-N-[(pyridin-4-yl)methyl]-1H-imidazole-4-carboxamide], the EC50 was 110 nM in assay [1] and 600 nM in assay [2].
Taken in the same sequence, the figures for `COc1ccc(-c2cn(-c3c(F)cc(OC)cc3F)c(NC(=O)c3ccc(OC(F)F)cc3)n2)cc1` [Example 14, N-[1-(2,6-Difluoro-4-methoxyphenyl)-4-(4-methoxyphenyl)-1H-imidazol-2-yl]-4-(difluoromethoxy)benzamide] were 39 nM and 160 nM.
Taken in the same sequence, the figures for `COc1ccc(-n2cc(C34CC5CC(CC(C5)C3)C4)nc2NC(=O)c2ccc(OC(F)F)cc2)cc1` [Example 31, N-[4-(Adamantan-1-yl)-1-(4-methoxyphenyl)-1H-imidazol-2-yl]-4-(difluoromethoxy)benzamide] were 320 nM and above 10000 nM.
In the same order, the values of `COc1cc(F)c(-n2cc(C(C)C)nc2NC(=O)c2ccc(OC(F)F)cc2)c(F)c1` [Example 70, N-(1-(2,6-Difluoro-4-methoxyphenyl)-4-isopropyl-1H-imidazol-2-yl)-4-(difluoromethoxy)benzamide] are 31 nM and 970 nM.
With `CCOC(=O)c1cn(-c2ccc(OC)cc2)c(NC(=O)c2ccc(OC(F)F)cc2)n1` [Example 30, Ethyl 2-[4-(difluoromethoxy)benzamido]-1-(4-methoxyphenyl)-1H-imidazole-4-carboxylate], the values for the EC50 in assay [1] and in assay [2] were 9 nM and 100 nM, respectively.
Taken in the same sequence, the figures for `CCOC(=O)c1cn(-c2c(F)cc(OC)cc2F)c(NC(=O)c2ccc(OC(F)F)cc2)n1` [Example 38, Ethyl 1-(2,6-difluoro-4-methoxyphenyl)-2-[4-(difluoromethoxy)benzamido]-1H-imidazole-4-carboxylate] were 15 nM and 620 nM.
As for `COc1cc(F)c(-n2cc(C3CC(N)C3)nc2NC(=O)c2ccc(OC(F)F)cc2)c(F)c1` (centres unmarked) [Example 81, N-[4-(3-aminocyclobutyl)-1-(2,6-difluoro-4-methoxyphenyl)-1H-imidazol-2-yl]-4-(difluoromethoxy)benzamide], the values for the 50% effective concentration (EC50) in assay [1] and in assay [2] were 4 nM and 5400 nM, respectively.
`COc1cc(F)c(-n2cc(Cc3ccccc3)nc2NC(=O)c2ccc(OC(F)F)cc2)c(F)c1` [Example 71, N-[4-benzyl-1-(2,6-difluoro-4-methoxyphenyl)-1H-imidazol-2-yl]-4-(difluoromethoxy)benzamide]: the 50% effective concentration (EC50) in assay [1] amounted to 46 nM; in assay [2], 1300 nM.
In the same order, the values of `COc1cc(F)c(-n2cc(C3CC(O)C3)nc2NC(=O)c2ccc(OC(F)F)cc2)c(F)c1` (centres unmarked) [Example 74, N-(1-(2,6-Difluoro-4-methoxyphenyl)-4-(3-hydroxycyclobutyl)-1H-imidazol-2-yl)-4-(difluoromethoxy)benzamide] are 7 nM and 250 nM.
With `COc1ccc(-n2cc(-c3ccc4c(c3)CCO4)nc2NC(=O)c2ccc(OC(F)F)cc2)cc1` [Example 19, 4-(Difluoromethoxy)-N-[4-(2,3-dihydro-1-benzofuran-5-yl)-1-(4-methoxyphenyl)-1H-imidazol-2-yl]benzamide], the values for the half-maximal effective concentration (EC50) in assay [1] and in assay [2] were 28 nM and 93 nM, respectively.
In the same order, the values of `COc1ccc(-n2cc(-c3ccccc3)nc2NC(=O)c2ccc(OC(F)F)cc2)cc1` [Example 2, 4-(Difluoromethoxy)-N-[1-(4-methoxyphenyl)-4-phenyl-1H-imidazol-2-yl]benzamide] are 3 nM and 38 nM.
Taken in the same sequence, the figures for `COc1cc(F)c(-n2cc(-c3ccc(C)cc3)nc2NC(=O)c2ccc(OC(F)F)cc2)c(F)c1` [Example 15, N-[1-(2,6-Difluoro-4-methoxyphenyl)-4-(4-methylphenyl)-1H-imidazol-2-yl]-4-(difluoromethoxy)benzamide] were 23 nM and 130 nM.
Taken in the same sequence, the figures for `COc1cc(F)c(-n2cc(-c3cccc(F)c3)nc2NC(=O)c2ccc(OC(F)F)cc2)c(F)c1` [Example 10, N-[1-(2,6-Difluoro-4-methoxyphenyl)-4-(3-fluorophenyl)-1H-imidazol-2-yl]-4-(difluoromethoxy)benzamide] were 7 nM and 200 nM.
On to `COc1ccc(-n2cc(-c3ccccn3)nc2NC(=O)c2ccc(OC(F)F)cc2)cc1` [Example 28, 4-(Difluoromethoxy)-N-[1-(4-methoxyphenyl)-4-(pyridin-2-yl)-1H-imidazol-2-yl]benzamide], for which the results for the half-maximal effective concentration (EC50) in assay [1] and in assay [2] were 700 nM and 1030 nM, respectively.
In the same order, the values of `COc1cc(F)c(-n2cc(-c3ccc(F)c(F)c3)nc2NC(=O)c2ccc(OC(F)F)cc2)c(F)c1` [Example 36, N-[1-(2,6-Difluoro-4-methoxyphenyl)-4-(3,4-difluorophenyl)-1H-imidazol-2-yl]-4-(difluoromethoxy)benzamide] are 31 nM and 320 nM.
`COc1ccc(-n2cc(C(C)(C)C)nc2NC(=O)c2ccc(OC(F)F)cc2)cc1` [Example 32, N-[4-Tert-butyl-1-(4-methoxyphenyl)-1H-imidazol-2-yl]-4-(difluoromethoxy)benzamide]: the EC50 is 18 nM in assay [1] and 110 nM in assay [2].
In the same order, the values of `COc1cc(F)c(-n2cc(Cc3ccccn3)nc2NC(=O)c2ccc(OC(F)F)cc2)c(F)c1` [Example 78, N-[1-(2,6-difluoro-4-methoxyphenyl)-4-[(pyridin-2-yl)methyl]-1H-imidazol-2-yl]-4-(difluoromethoxy)benzamide] are 56 nM and 870 nM.
In the same order, the values of `CCOC(=O)c1cc(-c2cn(-c3ccc(OC)cc3)c(NC(=O)c3ccc(OC(F)F)cc3)n2)on1` [Example 29, Ethyl 5-{2-[4-(difluoromethoxy)benzamido]-1-(4-methoxyphenyl)-1H-imidazol-4-yl}-1,2-oxazole-3-carboxylate] are 15 nM and 32 nM.
For `COc1cc(F)c(-n2cc(-c3ccc(Cl)c(Cl)c3)nc2NC(=O)c2ccc(OC(F)F)cc2)c(F)c1` [Example 18, N-[4-(3,4-Dichlorophenyl)-1-(2,6-difluoro-4-methoxyphenyl)-1H-imidazol-2-yl]-4-(difluoromethoxy)benzamide], the EC50 in assay [1] is 51 nM; in assay [2], 400 nM.
